US20080003214A1, “Medicaments Comprising Carbonyl Compounds, And The Use Thereof” (priority 2004, published 2008)

Tested on: not given
Assay: not given
Settings: not given
Molecule [N-]=[N+]=N[C@H]1C[C@H](C(=O)Nc2ccc(N3CCOCC3=O)cc2)N(C(=O)Nc2ccc(Cl)cc2)C1 [Compound A9, 1-N-[(4-chlorophenyl)]-2-N-{[4-(3-oxomorpholin-4-yl)phenyl]}-(2R,4S)-4-azidopyrrolidine-1,2-dicarboxamide] has a melting point of 145 °C.

Target: factor Xa (Homo sapiens, UniProt P00742)
Sequence (P00742 235-488 limits assumed): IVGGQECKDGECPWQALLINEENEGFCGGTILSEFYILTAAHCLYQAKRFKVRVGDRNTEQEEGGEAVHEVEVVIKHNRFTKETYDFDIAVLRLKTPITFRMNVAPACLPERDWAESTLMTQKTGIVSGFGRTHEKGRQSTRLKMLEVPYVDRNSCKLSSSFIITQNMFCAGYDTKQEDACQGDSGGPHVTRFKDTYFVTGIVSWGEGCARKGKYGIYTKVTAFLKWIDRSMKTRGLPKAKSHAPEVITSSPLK
Sequence (P00742 41-179 partner limits assumed): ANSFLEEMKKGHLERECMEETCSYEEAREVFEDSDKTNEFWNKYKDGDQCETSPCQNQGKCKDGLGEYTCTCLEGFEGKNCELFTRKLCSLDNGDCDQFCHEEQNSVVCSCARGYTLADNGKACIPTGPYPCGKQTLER
Assay: Inhibition of factor Xa (FXa-IC50)
Format: biochemical
Settings: Table 1, headed 'Affinity to receptors'; read-out: FXa-IC50
Text: The inhibition of factor Xa by the compounds according to the invention and the measurement of the anticoagulant and antithrombotic activity can be determined by conventional in-vitro or in-vivo methods. A suitable method is described, for example, by J. Hauptmann et al. in Thrombosis and Haemostasis 1990, 63, 220-223.
The inhibition of factor Xa can be measured, for example by the method of T. Hara et al. in Thromb. Haemostas. 1994, 71, 314-319.
With O=C(Nc1ccc(N2CCOCC2=O)cc1)[C@H]1CCCN1C(=O)c1ccc(Cl)s1 [AB1] the IC50 was 1800 nM.
O=C(Nc1ccc(N2CCOCC2=O)cc1)[C@H]1CCCN1C(=O)Nc1ccc(Cl)cc1 [Compound A1, 1-N-[(4-chlorophenyl)]-2-N-{[4-(3-oxomorpholin-4-yl)phenyl]}-(R)-pyrrolidine-1,2-dicarboxamide] gave an IC50 of 18 nM.
With O=C(Nc1ccc(-n2ccccc2=O)cc1)[C@H]1C[C@@H](O)CN1C(=O)Nc1ccc(Cl)cn1 [Compound A6, 1-N-[(5-chloropyridin-2-yl)]-2-N-{[4-(2-oxo-2H-pyridin-1-yl)phenyl]}-(2R,4R)-4-hydroxypyrrolidine-1,2-dicarboxamide] the IC50 was 3.7 nM.

Same assay, conditions: read-out: IC50(Xa)
CCO[C@@H]1C[C@H](C(=O)Nc2ccc(-n3nc(C)sc3=N)cc2)N(C(=O)Nc2ccc(Cl)cc2)C1 [1-N-[(4-chlorophenyl)]-2-N-{[4-(2-imino-5-methyl-1,3,4-thiadiazol-3-yl)phenyl]}-(2R,4R)-4-ethoxypyrrolidine-1,2-dicarboxamide] gave an IC50 of 4.8 nM.
Work on Cc1nn(-c2ccc(NC(=O)[C@H]3C[C@@H](OC(C)C)CN3C(=O)Nc3ccc(Cl)cc3)cc2)c(=N)s1 [1-N-[(4-chlorophenyl)]-2-N-{[4-(2-imino-5-methyl-1,3,4-thiadiazol-3-yl)phenyl]}-(2R,4R)-4-isopropoxypyrrolidine-1,2-dicarboxamide] yielded an IC50 of 3 nM.
Molecule CO[C@@H]1C[C@H](C(=O)Nc2ccc(-n3nc(C)sc3=N)cc2)N(C(=O)Nc2ccc(Cl)cc2)C1 [1-N-[(4-chlorophenyl)]-2-N-{[4-(2-imino-5-methyl-1,3,4-thiadiazol-3-yl)phenyl]}-(2R,4R)-4-methoxypyrrolidine-1,2-dicarboxamide] has an IC50 of 6.1 nM.
Work on Nc1ccc(O[C@H]2C[C@H](C(=O)Nc3ccc(N4CCOCC4=O)cc3)N(C(=O)Nc3ccc(Cl)cc3)C2)cc1 [Example 13-16, 1-N-[(4-chlorophenyl)]-2-N-{[4-(3-oxomorpholin-4-yl)phenyl]}-(2R,4S)-4-(4-aminophenoxy)pyrrolidine-1,2-dicarboxamide] yielded an IC50 of 25 nM.
With O=C(Nc1ccc(N2CCOCC2=O)cc1)[C@H]1C[C@@H](OCC(F)(F)F)CN1C(=O)Nc1ccc(Cl)cc1 [Example 13-18, 1-N-[(4-chlorophenyl)]-2-N-{[4-(3-oxomorpholin-4-yl)phenyl]}-(2R,4R)-4-(2,2,2-trifluoroethoxy)pyrrolidine-1,2-dicarboxamide] the IC50 was 9.7 nM.
